# Experiments:
# [1] = test system: wild oat; experiment: Test B postemergence herbicide test; format: in vivo, Avena fatua; conditions: for Plant response rating, Oat, Wild: visual rating after 13 to 15 days
# Method in brief: (§1)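 Formulated test chemicals went onto postemergence plants measuring 2 to 18 cm, at one to four leaves. For the paddy assay, species had reached two leaves. Scoring took place 13–15 days later by eye, relative to untreated plants, using 0 for no effect up to 100 for full control.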
# [2] = test system: corn; experiment: Test B pre-/postemergence herbicide test; format: in vivo, Zea mays
# Method in brief: (§2)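 Herbicidal effect was judged by eye on a 0–100 scale after plants stood 13 to 15 days in the greenhouse following pre- or postemergence treatment with surfactant-containing formulations.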
# [3] = test system: pigweed; experiment: Test B pre-/postemergence herbicide test; format: in vivo, Amaranthus retroflexus
# Method in brief: as §2
# [4] = test system: small flower umbrella sedge; experiment: Test B flooded paddy test; format: in vivo, Cyperus difformis; conditions: scale 0 to 100 (0 no effect, 100 complete control)
# Method in brief: (§3)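 Plants grow to 1- to 4-leaf stage (2–18 cm) for postemergence spraying, or to 2-leaf stage for the paddy test. Formulated compound is applied. Greenhouse holding lasts 13–15 days. Response is scored visually relative to controls, 0 no effect to 100 complete control; a dash means no result.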
# [5] = test system: Surinam grass; experiment: Test B pre-/postemergence herbicide test; format: in vivo, Urochloa decumbens
# Method in brief: as §2
# [6] = test system: giant foxtail; experiment: Test B pre-/postemergence herbicide test; format: in vivo, Setaria faberi
# Method in brief: as §2
# [7] = test system: barnyardgrass; experiment: Test B flooded paddy test; format: in vivo, Echinochloa crus-galli; conditions: scale 0 to 100 (0 no effect, 100 complete control)
# Method in brief: as §3
# [8] = test system: cocklebur; experiment: Test B pre-/postemergence herbicide test; format: in vivo, Xanthium strumarium
# Method in brief: (§4)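 Species tested were Echinochloa crus-galli, Ipomoea coccinea, Xanthium strumarium and Oryza sativa, treated both before emergence and at the 1- to 4-leaf stage; rice and barnyardgrass were also tested under flooding at 2 leaves. Greenhouse incubation lasted 13–15 days before visual 0–100 scoring.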
# [9] = test system: large crabgrass; experiment: Test B pre-/postemergence herbicide test; format: in vivo, Digitaria sanguinalis
# Method in brief: as §2
# [10] = test system: ducksalad; experiment: Test B flooded paddy test; format: in vivo, Heteranthera limosa; conditions: scale 0 to 100 (0 no effect, 100 complete control)
# Method in brief: as §3
# [11] = test system: morningglory; experiment: Test B pre-/postemergence herbicide test; format: in vivo, Ipomoea coccinea
# Method in brief: as §4
# [12] = test system: lambsquarters; experiment: Test B pre-/postemergence herbicide test; format: in vivo, Chenopodium album
# Method in brief: as §2
# [13] = test system: velvetleaf; experiment: Test B pre-/postemergence herbicide test; format: in vivo, Abutilon theophrasti
# Method in brief: as §2
# [14] = test system: rice; experiment: Test B flooded paddy test; format: in vivo, Oryza sativa; conditions: scale 0 to 100 (0 no effect, 100 complete control)
# Method in brief: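 Treated at 2-leaf (paddy) or 1–4-leaf, 2–18 cm (postemergence); greenhouse 13–15 d; visual score vs control, 0 none to 100 complete control; dash = not tested.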
# [15] = test system: blackgrass; experiment: Test B postemergence herbicide test; format: in vivo, Alopecurus myosuroides; conditions: for Plant response rating, Blackgrass: visual rating after 13 to 15 days
# Method in brief: as §3
# [16] = test system: barnyardgrass; experiment: Test B pre-/postemergence herbicide test; format: in vivo, Echinochloa crus-galli
# Method in brief: as §4
# [17] = test system: wheat; experiment: Test B postemergence herbicide test; format: in vivo, Triticum aestivum; set-up: key to Wheat plant response rating: 0 = no effect, 100 = complete control; conditions: for Plant response rating, Wheat: visual rating after 13 to 15 days
# Method in brief: as §1
# [18] = Postemergence, 500 g ai/ha, scale 0 (no effect) to 100 (complete control)
# [19] = postemergence, 125 g ai/ha, visual rating, scale 0 (no effect) to 100 (complete control)
# [20] = 500 g ai/ha, visual rating 0-100, 0 no effect, 100 complete control, preemergence
# [21] = Postemergence, 500 g ai/ha, visual rating after 13 to 15 days, scale 0 (no effect) to 100 (complete control)
# [22] = preemergence, 125 g ai/ha, 0 to 100 scale, 0 is no effect, 100 is complete control
# [23] = 1000 g ai/ha, visual rating, 13 to 15 days
# [24] = Postemergence, 125 g ai/ha, scale 0 (no effect) to 100 (complete control)
# [25] = Preemergence, 500 g ai/ha, scale 0 to 100
# [26] = postemergence, 125 g ai/ha, scale 0 to 100
structure (smiles),measurement,setting,value
CCON=C(C)c1cccc(NC(=O)c2cc(C(C)(C)C)nn2C)c1 [Compound 105],"Plant response rating, Oat, Wild",[1]; [18],10
same,"Oat, Wild plant response rating",[1]; [19],0
same,"Plant response rating, Corn",[2]; [20],0
same,"Plant response rating, Corn",[2]; [21],0
same,Corn plant response rating,[2]; [19],0
same,"Plant response rating, Corn",[2]; [22],0
same,"Plant response rating, Pigweed",[3]; [20],80
same,"Plant response rating, Pigweed",[3]; [21],80
same,Pigweed plant response rating,[3]; [19],0
same,"Plant response rating, Pigweed",[3]; [22],0
same,"Sedge, Umbrella plant response rating",[4]; [23],70
same,"Plant response rating, Surinam Grass",[5]; [20],10
same,"Plant response rating, Surinam Grass",[5]; [21],10
same,Surinam Grass plant response rating,[5]; [19],0
same,"Plant response rating, Surinam Grass",[5]; [22],0
same,"Plant response rating, Foxtail, Giant",[6]; [20],10
same,"Plant response rating, Foxtail, Giant",[6]; [21],0
same,"Foxtail, Giant plant response rating",[6]; [19],0
same,"Plant response rating, Foxtail, Giant",[6]; [22],0
same,Barnyardgrass plant response rating,[7]; [23],20
same,"Plant response rating, Cocklebur",[8]; [20],0
same,"Plant response rating, Cocklebur",[8]; [21],30
same,Cocklebur plant response rating,[8]; [19],30
same,"Plant response rating, Cocklebur",[8]; [22],0
same,"Plant response rating, Crabgrass, Large",[9]; [20],90
same,"Plant response rating, Crabgrass, Large",[9]; [21],0
same,"Crabgrass, Large plant response rating",[9]; [19],0
same,"Plant response rating, Crabgrass, Large",[9]; [22],0
same,Ducksalad plant response rating,[10]; [23],70
same,"Plant response rating, Morningglory",[11]; [20],10
same,"Plant response rating, Morningglory",[11]; [21],10
same,Morningglory plant response rating,[11]; [19],0
same,"Plant response rating, Morningglory",[11]; [22],0
same,"Plant response rating, Lambsquarters",[12]; [20],80
same,"Plant response rating, Lambsquarters",[12]; [21],80
same,Lambsquarters plant response rating,[12]; [19],50
same,"Plant response rating, Lambsquarters",[12]; [22],0
same,"Plant response rating, Velvetleaf",[13]; [20],0
same,"Plant response rating, Velvetleaf",[13]; [21],0
same,Velvetleaf plant response rating,[13]; [19],0
same,"Plant response rating, Velvetleaf",[13]; [22],0
same,Rice plant response rating,[14]; [23],0
same,"Plant response rating, Blackgrass",[15]; [18],0
same,Blackgrass plant response rating,[15]; [19],0
same,"Plant response rating, Barnyardgrass",[16]; [20],30
same,"Plant response rating, Barnyardgrass",[16]; [21],0
same,Barnyardgrass plant response rating,[16]; [19],0
same,"Plant response rating, Barnyardgrass",[16]; [22],0
same,"Plant response rating, Wheat",[17]; [18],0
same,Wheat plant response rating,[17]; [19],0
C=Cn1nc(C(C)(C)C)cc1C(=O)Nc1cccc(C(=O)NCC(F)(F)F)c1 [Compound 37],"Oat, Wild plant response rating",[1]; [24],10
same,"Plant response rating, Oat, Wild",[1]; [18],20
same,Corn plant response rating,[2]; [25],10
same,"Plant response rating, Pigweed",[3]; [21],90
same,Pigweed plant response rating,[3]; [25],100
same,"Plant response rating, Pigweed",[3]; [22],80
same,"Sedge, Umbrella plant response rating",[4]; [23],90
same,"Plant response rating, Surinam Grass",[5]; [21],20
same,Surinam Grass plant response rating,[5]; [25],40
same,"Plant response rating, Surinam Grass",[5]; [22],10
same,"Foxtail, Giant plant response rating",[6]; [24],20
same,"Plant response rating, Foxtail, Giant",[6]; [21],20
same,"Foxtail, Giant plant response rating",[6]; [25],60
same,"Plant response rating, Foxtail, Giant",[6]; [22],20
same,Barnyardgrass plant response rating,[7]; [23],30
same,Cocklebur plant response rating,[8]; [24],60
same,"Plant response rating, Cocklebur",[8]; [21],80
same,Cocklebur plant response rating,[8]; [25],0
same,"Crabgrass, Large plant response rating",[9]; [24],10
same,"Plant response rating, Crabgrass, Large",[9]; [21],20
same,"Crabgrass, Large plant response rating",[9]; [25],90
same,Ducksalad plant response rating,[10]; [23],60
same,Morningglory plant response rating,[11]; [25],0
same,"Plant response rating, Morningglory",[11]; [22],0
same,Lambsquarters plant response rating,[12]; [24],80
same,"Plant response rating, Lambsquarters",[12]; [21],90
same,Lambsquarters plant response rating,[12]; [25],100
same,"Plant response rating, Lambsquarters",[12]; [22],10
same,"Plant response rating, Velvetleaf",[13]; [21],40
same,Velvetleaf plant response rating,[13]; [25],20
same,"Plant response rating, Velvetleaf",[13]; [22],20
same,Rice plant response rating,[14]; [23],50
same,Blackgrass plant response rating,[15]; [24],10
same,"Plant response rating, Blackgrass",[15]; [18],10
same,Barnyardgrass plant response rating,[16]; [24],20
same,"Plant response rating, Barnyardgrass",[16]; [21],20
same,Barnyardgrass plant response rating,[16]; [25],60
same,"Plant response rating, Wheat",[17]; [18],20
CCNC(=O)c1cccc(NC(=O)c2nn(C(C)(C)C)nc2Br)c1 [Compound 434],"Oat, Wild plant response rating",[1]; [18],60
same,"Oat, Wild plant response rating",[1]; [26],50
same,Corn plant response rating,[2]; [18],40
same,Corn plant response rating,[2]; [26],40
same,Pigweed plant response rating,[3]; [18],60
same,Pigweed plant response rating,[3]; [26],40
same,"Sedge, Umbrella plant response rating",[4]; 125 g ai/ha,90
same,Surinam Grass plant response rating,[5]; [18],20
same,Surinam Grass plant response rating,[5]; [26],10
same,"Foxtail, Giant plant response rating",[6]; [18],30
same,"Foxtail, Giant plant response rating",[6]; [26],20
same,Barnyardgrass plant response rating,[7]; 125 g ai/ha,60
same,Cocklebur plant response rating,[8]; [18],70
same,Cocklebur plant response rating,[8]; [26],50
same,"Crabgrass, Large plant response rating",[9]; [18],30
same,"Crabgrass, Large plant response rating",[9]; [26],20
same,Ducksalad plant response rating,[10]; 125 g ai/ha,70
same,Morningglory plant response rating,[11]; [18],70
same,Morningglory plant response rating,[11]; [26],60
same,Lambsquarters plant response rating,[12]; [18],70
same,Lambsquarters plant response rating,[12]; [26],40
same,Velvetleaf plant response rating,[13]; [18],20
same,Velvetleaf plant response rating,[13]; [26],10
same,Rice plant response rating,[14]; 125 g ai/ha,70
same,Blackgrass plant response rating,[15]; [18],50
same,Blackgrass plant response rating,[15]; [26],30
same,Barnyardgrass plant response rating,[16]; [24],10
same,Barnyardgrass plant response rating,[16]; [18],30
same,Wheat plant response rating,"[17]; 500 g ai/ha, scale 0 to 100, 0 no effect, 100 complete control, preemergence",90
same,Wheat plant response rating,[17]; [18],50
same,Wheat plant response rating,[17]; [26],40

# From patent publication US20060069132A1, “Azolecarboxamide herbicides” (priority 2004, published 2006)
